We go through 4 molecules from patent publication US10456550B2, “Device and method for controlling respiration during sleep” (Yeda Research and Development Co. Ltd., priority 2010, dated 2019).

One experiment deals with humans. The following applies: selective trigeminal irritant during nocturnal sleep; cited from earlier work.
For the next experiment, the system named is 8-day-old rats. The conditions noted are these: cited from earlier work.
For experiment [1], the system named is healthy subjects. Put plainly: Respiration (inhale/exhale volume) after odorant presentation during sleep. The class given is in vivo, human. The following applies: for inhale/exhale volume ratio following odor presentation in comparison to baseline: nasal respiration, across all sleep stages; for difference in respiration volume ratio across sleep stages: repeated measures ANOVA between sleep stages. An excerpt: (§1) Odorants were delivered with a computer-controlled air dilution olfactometer built according to principals described in Sobel et al. 1997; Johnson and Sobel 2007 which are incorporated herein by reference. Room air (3 Liter per minute) was mixed with the odorized air (3 liter per minute), resulting in odor concentration of 50%. The odorant line culminated at a small nasal mask that was subserved by a vacuum line pulling at the same rate of airflow. This provided an odor environment at the nose where odorant onset and offset occurred within 2 and 260 ms, respectively, with no visual, auditory, tactile, humidity, or thermal cues as to the alteration. In other words, the odorant stimulus was not a puff of air but rather a block of odorant embedded within an airflow that was constant for the duration of the study. The olfactometer itself was located in a room adjacent to the sleep room, and only the airflow tubing crossed into the sleep room via a wave guide within the stainless steel-coated wall. This provided additional separation from any possible visual or auditory stimulation associated with the olfactometer (e.g., LEDs on its front panel, etc.).
Overall respiration was computed as a reflection of changes in thoracic respiration and abdominal respiration circumference measured using 2 piezoelectric respiratory belt transducers (1132 Pneumotrace II, UFI).
Nasal and Oral respiration was measured using separate pneumotachometers (high-sensitivity flowmeter model #4719, Hans Rudolph, Inc.) that were attached in line with the vent ports of the mask. The pneumotachometer differential pressure was measured and converted to a voltage signal using a spirometer (ML141, ADInstruments) that delivered the voltage to the instrumentation amplifier.
The effects of odorants on 4 breath parameters were tested: breath mean airflow velocity, breath maximum airflow velocity, breath volume, and breath duration. Breath volume was calculated by the trapezoidal Reimann sum method (Johnson et al. 2006). Breaths were aligned in time by setting the point at which the breath passed from the expiratory phase to the inspiratory phase as time 0.
The experimenters observed the real-time polysomnography reading, and 20 min after they determined that the subject had entered stage 2 sleep, they initiated the experimental protocol that from this point on was computer controlled. Every 9, 12, or 15 min (randomized), the olfactometer generated a 5-, 10-, or 20-s (randomized) odor stimulus. […] Upon spontaneous morning wake-up, subjects again rated the intensity and pleasantness of the odorant and were then debriefed, paid, and released.
Averages of respiration measurements for inhalation, exhalation, and inhalation/exhalation ratio in the 30 breaths before odor onset were compared with the averages of respiration measurements for inhalation, exhalation, and inhalation/exhalation ratio for each one of 6 breaths after odor onset across sleep stages per odorant and for all odorants together. This analysis was corrected for the 6 comparisons using a Bonferroni correction. Respiratory measurements were compared between sleep stages per odorant in a repeated measures ANOVA.
The second alternative is that, although oral respiration typically reflects only; 4% of overall respiration in sleep (Fitzpatrick et al. 2003), the odorant may have changed the balance between nasal and oral breathing such that oral inspiration increased. Under this scenario, the increase in nasal exhalation reflected an increase in oral inspiration rather than the exhalation of air stored in the lungs. The above data could not discriminate between these alternatives because it relied on accurate measurement of nasal respiration alone. An additional control group of 10 subjects were studied using the odorant vetiver oil that in addition to the nasal mask were fitted with an oral mask in order to accurately measure oral and nasal respiration simultaneously.

The test system of experiment [2] is healthy subjects. The experiment is described as follows: Arousal and wake-up frequency after odorant presentation during sleep (polysomnography). It is filed as in vivo, human. The conditions noted are these: odor vs clean-air baseline, across sleep stages; 5-20 s stimuli, 50% odor concentration.
Excerpt: as §1
Physiological measurements were recorded using a Power-Lab 16SP Monitoring System (ADInstruments) running off a Macintosh G4 computer using a sampling rate of 1000 Hz and a 50-Hz notch filter to remove electrical artifacts. For all measures dependent on electrodes, the scalp surface was cleaned with mild abrasive gel (Nuprep gel, Aurora) in order to assist in lowering impedance at the electrode site. For pasted to electrodes on the rest of the body, the skin surface was also first cleaned with alcohol. The following measures were recorded:
Electroencephalogram (EEG) was obtained through 2 circular electrodes ([…]) that were located at positions C3 and C4 according to the 10-20 system and were referenced to electrodes on the opposite mastoids (A2 and A1, respectively). Signals were amplified using a preamplifier (Octal Bio Amp ML138, ADInstruments).
Electromyogram (EMG) was obtained through 2 circular Ag/AgCl conductive adhesive electrodes (0.9 cm diameter). The electrodes were located bilaterally adjacent to the submentalis muscles. Signals were amplified using a preamplifier (Octal Bio Amp ML138, ADInstruments). […]
Blood oxygination (SpO2) was measured with an oxymeter (MLT321 SpO2 Finger Clip Sensor, ADInstruments) embedded within a finger clip placed on the left index finger.
Sleep stages were scored off-line according to the R and K criteria (Rechtschaffen and Kales 1968). […]
The experimenters observed the real-time polysomnography reading, and 20 min after they determined that the subject had entered stage 2 sleep, they initiated the experimental protocol that from this point on was computer controlled. […]

Where [3] appears, read: first breath after dispersion, worded 'may' in the description.

Consider `O=C=O` [CO2], for which, in the experiment on humans, the arousal frequency result is given as “concentration-dependent increase in arousal frequency”.
As for `CSSC` [DMDS, dimethyl disulfide], the sniffing during sleep entry in the experiment on 8-day-old rats (8-day-old rats presented with odorant) is “sniffing, including polypnea, occurred while the rats were asleep”. Further, the arousal responses entry with 8-day-old rats (sleeping 8-day-old rats) is on record as “did not evoke reliable arousal responses”.
In the case of `[NH4+].[NH4+].[S-2]` [ammonium sulfide], in the experiment on healthy subjects [1], the “inhale/exhale volume ratio following odor presentation in comparison to baseline” value is “significantly smaller” and the “difference in respiration volume ratio across sleep stages” value is given as “no difference”. In the experiment on healthy subjects [2], the “effect of odor on arousal frequency” value is given as “no effect of odor” and the “effect of odor on wake-up frequency” value is “no effect of odor on wake-up”.
Regarding `COc1cc(C=O)ccc1O` [vanillin], in the experiment on healthy subjects [1] (setting [3]), the “decrease of inhalation volume” value is given as “about 23%” and the “increase of exhalation volume” value is reported as “about 6%”. In addition, the “reduction of nasal inhalation/exhalation volume ratio” value in the experiment with healthy subjects [1] (first breath after odor onset, worded 'may' in the description) is “about 27%”. Also, in the experiment on healthy subjects [1], the “inhale/exhale volume ratio following odor presentation in comparison to baseline” value is given as “significantly smaller” and the “difference in respiration volume ratio across sleep stages” value was “no difference”. Besides, in the experiment with healthy subjects [1] (sixth breath after odor onset, worded 'may' in the description), the “reduction of nasal inhalation/exhalation volume ratio” value is given as “about 5%”. Also, in the experiment on healthy subjects [2], the “effect of odor on arousal frequency” value is reported as “no effect of odor on arousal” and the “effect of odor on wake-up frequency” value was “no effect of odor on wake-up”.
